Read-outs that look alike come from different tables or passages of the source.
Columns and labels:
Test in all cases: biochemical
Type in all cases: binding
[1] = biological target: T1, cellular kinases of SH-SY5Y cells (Homo sapiens, UniProt P48426); conditions: 2µM; SH-SY5Y cells; Labeling Site ATP; AKELPTLKDNDFINEGQK; read-out: KiNativ in-cell binding, % Inhibition, PIP4K2A
T1 construct: endogenous in cells; host or cells: SH-SY5Y
Source text: (§1) As KINOMEscan is an in vitro assay, and as different cell types have variable kinase expression profiles we sought to determine the kinase binding profile in our SH-SY5Y TFEB-relocalization cell model. […] Bound kinases were pulled down and analyzed by mass spectrometry to determine the in situ kinase binding profile for each compound.

[2] = biological target: cellular kinases of SH-SY5Y cells (Homo sapiens, UniProt P04049); conditions: 2µM; SH-SY5Y cells; Labeling Site Lys2; DMKSNNIFLHEGLTVK; read-out: KiNativ in-cell binding, % Inhibition, RAF1
Source text: as §1

[3] = biological target: T2, cellular kinases of SH-SY5Y cells (Homo sapiens, UniProt Q9Y4K4); conditions: 2µM, SH-SY5Y cells, read-out: KiNativ in-cell binding, % Inhibition, MAP4K5
T2 construct: endogenous in cells; host or cells: SH-SY5Y
Source text: as §1

[4] = biological target: T3, cellular kinases of SH-SY5Y cells (Homo sapiens, UniProt O14733); conditions: 2µM; SH-SY5Y cells; labeling site Lys2; peptide DVKPSNILLDER
T3 construct: endogenous in cells; host or cells: SH-SY5Y
Source text: as §1

[5] = biological target: cellular kinases of SH-SY5Y cells (Homo sapiens, UniProt P51812); conditions: 2µM; SH-SY5Y cells; Labeling Site Lys2; DLKPSNILYVDESGNPESIR; read-out: KiNativ in-cell binding, % Inhibition, RPS6KA3/RSK2 domain2
Source text: as §1

[6] = biological target: T4, cellular kinases of SH-SY5Y cells (Homo sapiens, UniProt Q9Y572); conditions: 2µM; SH-SY5Y cells; Labeling Site Lys2; DLKPSNVLLDPELHVK; read-out: KiNativ in-cell binding, % Inhibition, RIPK3
T4 construct: endogenous in cells; host or cells: SH-SY5Y
Source text: as §1

[7] = biological target: T5, cellular kinases of SH-SY5Y cells (Homo sapiens, UniProt Q8TD19); conditions: 2µM, SH-SY5Y cells, read-out: KiNativ in-cell binding, % Inhibition, NEK9
T5 construct: endogenous in cells; host or cells: SH-SY5Y
T5 sequence (Q8TD19 1-979): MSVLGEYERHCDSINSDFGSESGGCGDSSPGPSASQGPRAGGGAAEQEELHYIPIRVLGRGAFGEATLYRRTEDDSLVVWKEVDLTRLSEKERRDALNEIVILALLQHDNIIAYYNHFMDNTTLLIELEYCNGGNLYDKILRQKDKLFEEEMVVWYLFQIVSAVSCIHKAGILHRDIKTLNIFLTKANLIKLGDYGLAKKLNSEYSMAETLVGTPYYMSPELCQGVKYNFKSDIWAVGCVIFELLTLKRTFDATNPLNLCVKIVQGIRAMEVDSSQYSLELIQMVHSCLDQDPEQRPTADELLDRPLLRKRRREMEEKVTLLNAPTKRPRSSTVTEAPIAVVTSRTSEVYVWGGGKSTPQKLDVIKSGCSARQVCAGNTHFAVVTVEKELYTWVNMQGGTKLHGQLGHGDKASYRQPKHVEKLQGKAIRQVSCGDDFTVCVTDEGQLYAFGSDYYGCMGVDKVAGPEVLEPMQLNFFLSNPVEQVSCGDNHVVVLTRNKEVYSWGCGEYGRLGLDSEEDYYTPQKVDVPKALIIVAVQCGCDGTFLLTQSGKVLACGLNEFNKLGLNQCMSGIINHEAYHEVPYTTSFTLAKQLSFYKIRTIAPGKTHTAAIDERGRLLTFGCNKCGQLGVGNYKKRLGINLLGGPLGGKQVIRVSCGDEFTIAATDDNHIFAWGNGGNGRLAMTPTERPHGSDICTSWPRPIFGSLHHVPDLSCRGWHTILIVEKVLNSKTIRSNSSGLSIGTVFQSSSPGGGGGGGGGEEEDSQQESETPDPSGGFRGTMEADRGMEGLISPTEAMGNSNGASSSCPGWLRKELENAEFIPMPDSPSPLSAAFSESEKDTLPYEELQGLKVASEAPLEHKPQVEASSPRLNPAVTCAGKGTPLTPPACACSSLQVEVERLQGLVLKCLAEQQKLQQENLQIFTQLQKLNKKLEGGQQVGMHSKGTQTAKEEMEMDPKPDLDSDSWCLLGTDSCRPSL
Source text: as §1

[8] = biological target: cellular kinases of SH-SY5Y cells (Homo sapiens, UniProt P68400); conditions: 2µM; SH-SY5Y cells; labeling site Protein Kinase Domain; peptide GGPNIITLADIVKDPVSR
Source text: as §1

[9] = biological target: T6, cellular kinases of SH-SY5Y cells (Homo sapiens, UniProt Q58A45); conditions: 2µM, SH-SY5Y cells, labeling site ATP
T6 construct: endogenous in cells; host or cells: SH-SY5Y
Source text: as §1

[10] = biological target: cellular kinases of SH-SY5Y cells (Homo sapiens, UniProt P49840); conditions: 2µM; SH-SY5Y cells; labeling site Lys2; peptide DIKPQNLLVDPDTAVLK
Source text: as §1

[11] = tested on: cellular kinases of SH-SY5Y cells
Source text: as §1

[12] = biological target: cellular kinases of SH-SY5Y cells (Homo sapiens, UniProt Q8TBX8); conditions: 2µM, SH-SY5Y cells, Labeling Site ATP, read-out: KiNativ in-cell binding, % Inhibition, PIP4K2C
Source text: as §1

cellular kinases of SH-SY5Y cells (Homo sapiens, UniProt Q8TBX8), sequence (Q8TBX8 whole entry): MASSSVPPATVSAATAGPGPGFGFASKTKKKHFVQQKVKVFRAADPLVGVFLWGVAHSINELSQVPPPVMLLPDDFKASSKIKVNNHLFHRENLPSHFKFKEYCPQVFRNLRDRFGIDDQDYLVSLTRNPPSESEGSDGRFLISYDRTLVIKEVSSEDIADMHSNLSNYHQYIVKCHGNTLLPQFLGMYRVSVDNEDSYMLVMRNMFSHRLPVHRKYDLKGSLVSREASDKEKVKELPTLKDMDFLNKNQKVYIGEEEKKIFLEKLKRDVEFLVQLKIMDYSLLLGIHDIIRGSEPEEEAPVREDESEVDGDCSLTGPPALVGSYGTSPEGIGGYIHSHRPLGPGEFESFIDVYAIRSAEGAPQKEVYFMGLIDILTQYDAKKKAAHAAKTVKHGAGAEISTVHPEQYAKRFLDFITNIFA
T2 sequence (Q9Y4K4 whole entry): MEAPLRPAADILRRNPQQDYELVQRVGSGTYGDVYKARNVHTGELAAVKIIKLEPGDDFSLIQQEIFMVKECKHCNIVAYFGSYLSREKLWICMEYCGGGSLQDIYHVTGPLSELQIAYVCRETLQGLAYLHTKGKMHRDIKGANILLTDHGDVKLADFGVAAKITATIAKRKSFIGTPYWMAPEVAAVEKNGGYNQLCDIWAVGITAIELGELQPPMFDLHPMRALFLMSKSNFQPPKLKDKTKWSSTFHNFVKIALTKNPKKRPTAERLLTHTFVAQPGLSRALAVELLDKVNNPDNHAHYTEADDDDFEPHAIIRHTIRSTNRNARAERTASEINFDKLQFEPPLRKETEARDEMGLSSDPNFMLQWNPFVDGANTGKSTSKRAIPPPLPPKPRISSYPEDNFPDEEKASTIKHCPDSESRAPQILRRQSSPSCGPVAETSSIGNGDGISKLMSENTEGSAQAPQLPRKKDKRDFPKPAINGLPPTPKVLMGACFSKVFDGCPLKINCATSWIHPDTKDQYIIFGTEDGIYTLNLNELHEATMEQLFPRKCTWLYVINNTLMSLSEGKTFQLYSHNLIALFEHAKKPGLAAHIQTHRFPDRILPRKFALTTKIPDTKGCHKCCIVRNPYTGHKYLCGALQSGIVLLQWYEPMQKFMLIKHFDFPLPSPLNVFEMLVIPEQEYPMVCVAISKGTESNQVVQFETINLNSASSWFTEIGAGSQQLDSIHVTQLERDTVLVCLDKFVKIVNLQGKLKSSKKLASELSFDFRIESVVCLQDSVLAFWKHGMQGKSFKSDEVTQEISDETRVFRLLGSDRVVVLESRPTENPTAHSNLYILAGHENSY
T6 sequence (Q58A45 whole entry): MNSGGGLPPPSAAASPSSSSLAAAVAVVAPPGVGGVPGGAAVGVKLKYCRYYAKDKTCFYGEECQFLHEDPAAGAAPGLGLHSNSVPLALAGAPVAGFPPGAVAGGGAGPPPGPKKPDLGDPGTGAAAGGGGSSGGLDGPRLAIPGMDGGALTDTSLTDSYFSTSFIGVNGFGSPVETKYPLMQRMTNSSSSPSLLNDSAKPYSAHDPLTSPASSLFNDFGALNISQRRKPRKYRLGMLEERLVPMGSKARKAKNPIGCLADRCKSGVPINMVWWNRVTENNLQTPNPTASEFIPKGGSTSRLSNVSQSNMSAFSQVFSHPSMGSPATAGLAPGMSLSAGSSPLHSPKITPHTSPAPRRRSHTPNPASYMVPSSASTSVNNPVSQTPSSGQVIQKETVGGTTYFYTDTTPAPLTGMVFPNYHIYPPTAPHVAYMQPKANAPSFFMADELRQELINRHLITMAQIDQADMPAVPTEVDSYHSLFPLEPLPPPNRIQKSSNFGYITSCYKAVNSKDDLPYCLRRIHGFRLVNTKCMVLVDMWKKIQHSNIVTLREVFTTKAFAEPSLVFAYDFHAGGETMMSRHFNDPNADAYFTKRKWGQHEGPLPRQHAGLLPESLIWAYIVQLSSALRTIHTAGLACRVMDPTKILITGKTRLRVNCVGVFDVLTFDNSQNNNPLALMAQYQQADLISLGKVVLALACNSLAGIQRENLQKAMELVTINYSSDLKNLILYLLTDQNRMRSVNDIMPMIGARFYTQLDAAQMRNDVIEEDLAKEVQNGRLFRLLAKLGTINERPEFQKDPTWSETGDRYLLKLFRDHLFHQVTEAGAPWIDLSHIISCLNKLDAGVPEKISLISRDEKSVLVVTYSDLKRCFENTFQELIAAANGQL
cellular kinases of SH-SY5Y cells (Homo sapiens, UniProt P68400), sequence (P68400 whole entry, the tested form may be a part): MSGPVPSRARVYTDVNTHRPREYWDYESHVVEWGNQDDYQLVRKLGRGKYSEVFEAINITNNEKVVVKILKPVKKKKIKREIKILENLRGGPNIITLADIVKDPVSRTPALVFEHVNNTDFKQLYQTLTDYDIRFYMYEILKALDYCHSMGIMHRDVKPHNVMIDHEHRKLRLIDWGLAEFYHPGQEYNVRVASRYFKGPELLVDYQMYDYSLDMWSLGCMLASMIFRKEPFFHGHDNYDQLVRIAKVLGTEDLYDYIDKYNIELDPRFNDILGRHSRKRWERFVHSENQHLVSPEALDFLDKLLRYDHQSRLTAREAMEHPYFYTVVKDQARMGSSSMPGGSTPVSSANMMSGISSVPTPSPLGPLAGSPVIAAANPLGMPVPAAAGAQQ
T4 sequence (Q9Y572 whole entry): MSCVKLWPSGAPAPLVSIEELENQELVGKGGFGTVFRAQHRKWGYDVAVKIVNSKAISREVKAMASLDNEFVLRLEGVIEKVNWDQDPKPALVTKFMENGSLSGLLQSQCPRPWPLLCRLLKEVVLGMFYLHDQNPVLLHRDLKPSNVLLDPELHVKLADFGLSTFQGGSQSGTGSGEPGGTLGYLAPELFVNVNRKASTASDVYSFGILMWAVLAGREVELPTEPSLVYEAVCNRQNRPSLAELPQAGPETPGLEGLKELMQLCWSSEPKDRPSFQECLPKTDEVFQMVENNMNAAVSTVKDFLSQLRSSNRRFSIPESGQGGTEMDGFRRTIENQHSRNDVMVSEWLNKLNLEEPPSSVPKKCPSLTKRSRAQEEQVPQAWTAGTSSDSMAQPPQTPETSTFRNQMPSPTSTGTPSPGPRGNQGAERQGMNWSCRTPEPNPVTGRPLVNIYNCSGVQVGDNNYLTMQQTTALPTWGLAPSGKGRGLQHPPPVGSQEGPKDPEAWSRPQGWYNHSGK
T1 sequence (P48426 whole entry): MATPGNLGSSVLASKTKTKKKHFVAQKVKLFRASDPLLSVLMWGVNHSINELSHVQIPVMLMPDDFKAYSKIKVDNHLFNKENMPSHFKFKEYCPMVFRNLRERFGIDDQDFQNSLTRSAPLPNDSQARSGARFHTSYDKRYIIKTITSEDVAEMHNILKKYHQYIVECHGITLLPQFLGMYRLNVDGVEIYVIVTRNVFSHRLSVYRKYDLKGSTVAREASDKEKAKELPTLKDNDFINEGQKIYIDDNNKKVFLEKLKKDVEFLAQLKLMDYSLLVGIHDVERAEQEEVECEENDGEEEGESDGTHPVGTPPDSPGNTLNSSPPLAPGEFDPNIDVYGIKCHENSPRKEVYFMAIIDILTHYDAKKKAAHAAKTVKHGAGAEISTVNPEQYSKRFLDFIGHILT
cellular kinases of SH-SY5Y cells (Homo sapiens, UniProt P51812), sequence (P51812 whole entry, the tested form may be a part): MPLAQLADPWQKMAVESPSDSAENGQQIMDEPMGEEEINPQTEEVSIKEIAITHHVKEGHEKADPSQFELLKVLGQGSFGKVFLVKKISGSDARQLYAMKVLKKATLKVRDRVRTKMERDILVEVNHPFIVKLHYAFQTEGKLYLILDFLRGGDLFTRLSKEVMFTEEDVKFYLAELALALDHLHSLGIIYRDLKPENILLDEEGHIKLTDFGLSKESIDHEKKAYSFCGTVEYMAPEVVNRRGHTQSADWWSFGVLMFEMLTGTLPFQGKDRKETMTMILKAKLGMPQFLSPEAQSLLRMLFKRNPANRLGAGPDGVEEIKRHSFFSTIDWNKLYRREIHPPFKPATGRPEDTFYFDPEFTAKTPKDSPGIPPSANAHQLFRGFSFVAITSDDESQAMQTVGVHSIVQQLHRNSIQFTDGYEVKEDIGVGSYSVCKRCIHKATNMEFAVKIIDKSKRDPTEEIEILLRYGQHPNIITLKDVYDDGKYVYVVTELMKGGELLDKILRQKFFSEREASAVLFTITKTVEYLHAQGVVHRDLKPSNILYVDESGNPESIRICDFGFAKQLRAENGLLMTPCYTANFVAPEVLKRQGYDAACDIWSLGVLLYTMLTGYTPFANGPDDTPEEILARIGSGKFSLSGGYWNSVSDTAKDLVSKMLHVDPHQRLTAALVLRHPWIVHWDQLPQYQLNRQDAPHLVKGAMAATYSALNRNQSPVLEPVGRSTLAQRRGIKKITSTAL
cellular kinases of SH-SY5Y cells (Homo sapiens, UniProt P49840), sequence (P49840 whole entry): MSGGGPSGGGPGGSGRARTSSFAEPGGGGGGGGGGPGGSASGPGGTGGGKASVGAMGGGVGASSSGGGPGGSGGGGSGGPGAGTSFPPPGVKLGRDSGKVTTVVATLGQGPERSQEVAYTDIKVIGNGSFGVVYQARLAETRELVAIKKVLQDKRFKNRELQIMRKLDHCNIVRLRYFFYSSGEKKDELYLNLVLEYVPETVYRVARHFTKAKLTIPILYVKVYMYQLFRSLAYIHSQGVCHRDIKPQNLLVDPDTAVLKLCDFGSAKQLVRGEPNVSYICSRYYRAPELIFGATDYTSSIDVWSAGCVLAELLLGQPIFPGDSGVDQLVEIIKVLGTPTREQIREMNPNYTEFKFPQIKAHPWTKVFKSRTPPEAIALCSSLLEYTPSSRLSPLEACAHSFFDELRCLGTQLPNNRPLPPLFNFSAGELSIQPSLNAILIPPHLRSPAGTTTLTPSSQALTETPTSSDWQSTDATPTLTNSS

## Cc1cccc(-c2nc(Nc3ccc4ncsc4c3)c3ccccc3n2)n1 [NK140]
[1]
  inhibition at 2 µM: 29.7%
[2]
  inhibition at 2 µM: 32.5%
[3]; Labeling Site Lys1, NVHTGELAAVKIIK
  inhibition at 2 µM: 27.4%
[3]; Labeling Site Lys2, DIKGANILLTDHGDVK
  inhibition at 2 µM: 26.4%
[4]
  KiNativ in-cell binding, MAP2K7: -84.9
[5]
  inhibition at 2 µM: -54.8%
[6]
  inhibition at 2 µM: 26.1%
[7]; Labeling Site Activation Loop, LGDYGLAKK
  inhibition at 2 µM: 0.758%
[7]; Labeling Site Lys1, RTEDDSLVVWKEVDLTR
  inhibition at 2 µM: -12.8%
[7]; Labeling Site Lys2, DIKTLNIFLTK
  inhibition at 2 µM: -8%
[8]
  KiNativ in-cell binding, CSNK2A1: 31.0
[9]; peptide IQKSSNFGYITSCYK
  KiNativ in-cell binding, PAN3: -119.6
[9]; peptide VMDPTKILITGK
  KiNativ in-cell binding, PAN3: -99.0
[10]
  KiNativ in-cell binding, GSK3A: 7.1
[11]
  KiNativ in-cell binding, % Inhibition, CaMK2a, CaMK2b, CaMK2d, CaMK2g: 16.4%
  KiNativ in-cell binding, AKT1, AKT3: -0.000814
[11]; 2 µM
  KiNativ in-cell binding, % Inhibition, AKT1, AKT3: 34.2%
[11]; 2µM, SH-SY5Y cells, Labeling Site ATP Loop, GKFAVVR
  KiNativ in-cell binding, % Inhibition, STK17A/DRAK1, STK17B/DRAK2: -4.6%
[11]; 2µM, SH-SY5Y cells, Labeling Site ATP Loop, GKFGNVYLAR
  KiNativ in-cell binding, % Inhibition, AURKA/AurA, AURKB/AurB, AURKC/AurC: 24.2%
[11]; 2µM, SH-SY5Y cells, Labeling Site ATP Loop, KIGCGNFGELR
  KiNativ in-cell binding, % Inhibition, CSNK1G1, CSNK1G2, CSNK1G3: 8.1%
[11]; 2µM, SH-SY5Y cells, Labeling Site Activation Loop, IGDLGLATLKR
  KiNativ in-cell binding, % Inhibition, Wnk1, Wnk2, Wnk4: 6.9%
[11]; 2µM, SH-SY5Y cells, Labeling Site Activation Loop, KIYSGDYYR
  KiNativ in-cell binding, % Inhibition, MERTK/MER, TYRO3: -4.5%
[11]; 2µM, SH-SY5Y cells, Labeling Site Activation Loop, SKNVFYDNGK
  KiNativ in-cell binding, % Inhibition, KSR1, KSR2: 5.1%
[11]; 2µM, SH-SY5Y cells, Labeling Site Lys1, EVAIKIIDK
  KiNativ in-cell binding, % Inhibition, MARK3, MARK4: 2.7%
[11]; 2µM, SH-SY5Y cells, Labeling Site Lys1, EVAVKIIDK
  KiNativ in-cell binding, % Inhibition, MARK1, MARK2: 1.8%
[11]; 2µM, SH-SY5Y cells, Labeling Site Lys2, DIKAGNILLTEPGQVK
  KiNativ in-cell binding, % Inhibition, TAOK1, TAOK3: 26.0%
[11]; 2µM, SH-SY5Y cells, Labeling Site Lys2, DIKGANILR
  KiNativ in-cell binding, % Inhibition, MAP3K2, MAP3K3: 28.5%
[11]; 2µM, SH-SY5Y cells, Labeling Site Lys2, DIKPANVFITATGVVK
  KiNativ in-cell binding, % Inhibition, NEK6, NEK7: -7.5%
[11]; 2µM, SH-SY5Y cells, Labeling Site Lys2, DLKAENLLLDADMNIK
  KiNativ in-cell binding, % Inhibition, MARK2, MARK3: -28.6%
[11]; 2µM, SH-SY5Y cells, Labeling Site Lys2, DLKCDNIFITGPTGSVK
  KiNativ in-cell binding, % Inhibition, Wnk1, Wnk2, Wnk3: 6.4%
[11]; 2µM, SH-SY5Y cells, Labeling Site Lys2, DLKLDNVMLDSEGHIK
  KiNativ in-cell binding, % Inhibition, PRKCA/PKCa, PRKCB/PKCb: -2.4%
[11]; 2µM, SH-SY5Y cells, Labeling Site Lys2, DVKPDNFLMGLGKK
  KiNativ in-cell binding, % Inhibition, CSNK1D, CSNK1E: 19.5%
[11]; 2µM, SH-SY5Y cells, Labeling Site Lys2, DVKPDNMLLDK
  KiNativ in-cell binding, % Inhibition, ROCK1, ROCK2: -44.8%
[11]; 2µM, SH-SY5Y cells, Labeling Site Lys2, DVKPENLLYTSK
  KiNativ in-cell binding, % Inhibition, MAPKAPK2, MAPKAPK3: 16.8%
[11]; 2µM, SH-SY5Y cells, Labeling Site Other, NLIPMDPNGLSDPYVKLK
  KiNativ in-cell binding, % Inhibition, PRKCA/PKCa, PRKCG/PKCg: -18.8%
[11]; 2µM, SH-SY5Y cells, Labeling Site Unassigned, SGTPMQSAAKAPYLAK
  KiNativ in-cell binding, % Inhibition, PI4KA, PI4KAP2: 1.2%
[11]; 2µM, SH-SY5Y cells, labeling site Lys2, peptide DIKPGNIMR
  KiNativ in-cell binding, IKKe, TBK1: -85.5
[11]; 2µM, SH-SY5Y cells, labeling site Lys2, peptide DVKGNNILLTTEGGVK
  KiNativ in-cell binding, MYO3A, MYO3B: 0.9
[11]; 2µM, SH-SY5Y cells, labeling site Lys2, peptide DVKPSNILVNSR
  KiNativ in-cell binding, MAP2K1, MAP2K2: -3.2
[12]; TLVIKEVSSEDIADMHSNLSNYHQYIVK
  inhibition at 2 µM: -7%
[12]; VKELPTLKDMDFLNK
  inhibition at 2 µM: 7.2%
